Each structure is given as a SMILES string.

What all share (format): in vitro ADME
A short description of data set [1]: glucuronidation in liver microsomes from rats. Particulars: rat liver microsomes, UDPGA, 37° C. for 60 min. As to the method:
All liver microsomal and cytosolic fractions were prepared using the following procedure. Thawed livers were homogenized with 2 volumes of 50 mM Tris-buffer (pH 7.5) containing 1.15% KCl. For microsomal and cytosolic preparations, the homogenate was centrifuged for 20 min at 9,000×g and the resulting supernatant was centrifuged for 60 min at 105,000×g. The resulting cytosolic fractions were re-centrifuged at 105,000×g for 60 min. Fractions of cytosol were aliquoted into small tubes and stored at −70° C. Subsequently, the microsomal pellets were washed with 10 mM EDTA containing 1.15% KCl and were centrifuged at 105,000×g for 60 min. […] Protein concentrations were determined by a modified Lowry assay (Smith et al., 1985). The specific cytochrome P450 content in each microsomal preparation was measured as described by Omura and Sato, J. Biol. Chem. 239, 2370-2378 (1964).
The typical reaction mixture (500 μl) containing 10 mM MgCl2, 2% glycerol, 0.02% lubrol PX, 3 mM UDPGA, 1 mg liver microsomes, 50 mM bis-tris propane buffer (pH 8.5) and ˜10 or 25 μM compound (in 15 μl methanol) was incubated at 37° C. for 30-60 min. After incubation, the reactions were terminated by the addition of four volumes of acetonitrile and processed and analyzed by HPLC as mentioned above.
Background: Liver microsomes are vesicles of endoplasmic reticulum, rich in cytochrome P450 enzymes.

A short description of data set [2]: oxidative metabolism in liver microsomes from humans. Particulars: human liver microsomes, 15 min incubation. As for the experimental part: (§1) All liver microsomal and cytosolic fractions were prepared using the following procedure. Thawed livers were homogenized with 2 volumes of 50 mM Tris-buffer (pH 7.5) containing 1.15% KCl. For microsomal and cytosolic preparations, the homogenate was centrifuged for 20 min at 9,000×g and the resulting supernatant was centrifuged for 60 min at 105,000×g. The resulting cytosolic fractions were re-centrifuged at 105,000×g for 60 min. Fractions of cytosol were aliquoted into small tubes and stored at −70° C. Subsequently, the microsomal pellets were washed with 10 mM EDTA containing 1.15% KCl and were centrifuged at 105,000×g for 60 min. Washed microsomes were resuspended in 10 mM potassium phosphate buffer (pH 7.4) containing 250 mM sucrose, aliquoted into small tubes, and stored at −70° C. Protein concentrations were determined by a modified Lowry assay (Smith et al., 1985). The specific cytochrome P450 content in each microsomal preparation was measured as described by Omura and Sato, J. Biol. Chem. 239, 2370-2378 (1964). […]
(§2) Method A was conducted on a Shimadzu HPLC system (Shimadzu Scientific Instruments Inc., Columbia Md.). The parent compounds and their metabolites were monitored directly using a radiometric detector (INUS Systems Inc. Tampa, Fla.) and Ultima-Flow M (Packard Instrument Co., Meridan Conn.) as scintillant at a flow rate of 3 mL/min. […]

Data set [3] can be described thus: oxidative metabolism in liver microsomes from rats. Particulars: rat liver microsomes, 15 min incubation. As to the method:
as §1, §2

For `C[C@@H](O[C@H]1OCCN[C@H]1c1ccc(F)cc1)c1cc(C(F)(F)F)cc(C(F)(F)F)c1` [Metabolite M-1, (2R,3S)-2-[(1R)-1-[3,5-bis(trifluoromethyl)phenyl]ethoxy]-3-(4-fluorophenyl)morpholine], the “conversion to the corresponding glucuronide” value in data set [1] is on record as about 20%. Moreover, the “parent compound remained after incubation” value in data set [2] and in data set [3] was about 50% each time.

Values taken from patent US6727244B2, “Mammalian metabolites of a tachykinin receptor antagonist” (Merck & Co., Inc., priority 2000, dated 2004).
